Measurements reported in patent US9636336B2, “Aminoester derivatives” (CHIESI FARMACEUTICI S.p.A., priority 2015, dated 2017).
Read-outs that look alike come from different tables or passages of the source.

Assays:
[1] = target: Human M3 receptor membranes (Homo sapiens (Human), UniProt P20309); experiment: M3 Receptor radioligand binding assay; conditions: M3 Receptor radioligand binding assay; read-out: M3 IC50 activity
Procedure: M3 Receptor Radioligand Binding Assay:
The assay is carried out in 96-well polypropylene plates in a volume of 250 μl. […] The final assay concentration of DMSO is 0.5% (v/v). The plates are sealed and incubated for 2 h at room temperature on an orbital shaker (slow speed). Membranes are harvested onto 96-well unifilter GF/C filter plates pre-treated with 0.5% polyethyleneimine (v/v), using a filter manifold, washed four times with 200 μl of assay buffer. The plates are dried before addition of 50 μl of microscint-0, sealed then read in a Trilux Microbeta scintillation counter. IC50 values are determined from competition curves using a non-linear curve fitting program. Ki values are calculated from IC50 values by the Cheng and Prusoff equation.

Human recombinant PDE4B2 = Human recombinant PDE4B2 (Homo sapiens (Human), UniProt Q07343); experiment: PDE4B2 HTRF assay; format: biochemical; conditions: read-out: PDE4B2 IC50 activity
Procedure: PDE4B2 activity is detected using the LANCE Ultra cAMP homogeneous time resolved fluorescence resonance energy transfer (TR-FRET) assay from Perkin Elmer. The assay is based on the competition between the europium (Eu) chelate-labeled cAMP tracer and sample cAMP for binding sites on cAMP-specific monoclonal antibodies (mAb) labelled with the ULight™ dye. The assay is carried out in 384-well low volume plates in a volume of 10 μl. Human recombinant PDE4B2 (80 pM) is incubated for 2 h with 3 nM cAMP in buffer containing 1×HBSS, 5 mM HEPES, 3 mM MgCl2, 0.1% BSA, pH 7.4 with or without test compounds. The enzymatic reactions are efficiently stopped by the addition of 500 μM IBMX present in the combined Stop/Detection buffer containing europium (Eu) chelate-labeled cAMP tracer and cAMP-specific monoclonal antibodies (mAb) labelled with the ULight™ dye. […] IC50 values are determined from competition curves using a non-linear curve fitting program.

Chain of Human M3 receptor membranes (P20309 whole entry): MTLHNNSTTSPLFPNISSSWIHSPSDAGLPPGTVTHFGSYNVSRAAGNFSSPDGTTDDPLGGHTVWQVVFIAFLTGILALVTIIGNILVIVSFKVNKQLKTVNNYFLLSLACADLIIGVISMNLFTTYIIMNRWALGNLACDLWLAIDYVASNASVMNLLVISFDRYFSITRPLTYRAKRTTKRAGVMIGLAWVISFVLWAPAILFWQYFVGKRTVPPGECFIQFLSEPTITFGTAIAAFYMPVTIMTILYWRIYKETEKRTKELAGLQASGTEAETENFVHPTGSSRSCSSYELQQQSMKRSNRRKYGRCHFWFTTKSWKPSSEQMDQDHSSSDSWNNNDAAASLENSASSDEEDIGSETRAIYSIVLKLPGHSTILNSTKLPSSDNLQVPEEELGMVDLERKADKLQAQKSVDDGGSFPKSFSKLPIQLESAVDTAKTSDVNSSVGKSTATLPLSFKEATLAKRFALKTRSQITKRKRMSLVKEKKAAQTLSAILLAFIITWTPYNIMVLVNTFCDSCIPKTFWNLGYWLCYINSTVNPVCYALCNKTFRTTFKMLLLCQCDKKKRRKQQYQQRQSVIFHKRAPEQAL
Chain of Human recombinant PDE4B2 (Q07343 other isoform, or with tags, fused parts or gaps): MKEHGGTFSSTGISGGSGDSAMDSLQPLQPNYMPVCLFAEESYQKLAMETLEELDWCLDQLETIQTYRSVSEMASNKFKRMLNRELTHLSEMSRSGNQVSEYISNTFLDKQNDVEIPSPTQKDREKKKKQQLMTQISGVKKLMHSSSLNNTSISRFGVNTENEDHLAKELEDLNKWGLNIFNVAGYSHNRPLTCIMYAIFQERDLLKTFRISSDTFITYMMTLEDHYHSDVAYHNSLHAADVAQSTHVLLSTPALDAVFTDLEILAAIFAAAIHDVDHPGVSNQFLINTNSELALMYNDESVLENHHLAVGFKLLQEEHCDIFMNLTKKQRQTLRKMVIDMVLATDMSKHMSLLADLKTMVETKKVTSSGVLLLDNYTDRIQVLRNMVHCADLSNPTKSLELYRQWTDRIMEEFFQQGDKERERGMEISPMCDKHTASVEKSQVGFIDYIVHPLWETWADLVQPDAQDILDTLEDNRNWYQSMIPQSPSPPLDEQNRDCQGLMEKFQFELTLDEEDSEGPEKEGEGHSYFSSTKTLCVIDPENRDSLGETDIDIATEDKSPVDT

Compound	IC50 [1] [nM]	IC50 (Human recombinant PDE4B2; PDE4B2 HTRF assay) [nM]	IC50 (Human recombinant PDE4B2) [nM]
COc1ccc(C(Cc2c(Cl)c[n+]([O-])cc2Cl)OC(=O)c2ccc(CNC(C(=O)OCC3CCN(C)CC3)c3cccc(O)c3)s2)cc1OCC1CC1 (stereo not drawn) [Example 48, [1-[3-(cyclopropylmethoxy)-4-methoxy-phenyl]-2-(3,5-dichloro-1-oxido-pyridin-1-ium-4-yl)ethyl]5-[[[1-(3-hydroxyphenyl)-2-[(1-methyl-4-piperidyl)methoxy]-2-oxo-ethyl]amino]methyl]thiophene-2-carboxylate]	10 to 100		
COc1ccc([C@H](Cc2c(Cl)c[n+]([O-])cc2Cl)OC(=O)c2ccc(CNC(C(=O)OCC3CN(C)C3)c3ccccc3)s2)cc1OC (stereo partly drawn) [Example 25, [(1S)-2-(3,5-dichloro-1-oxido-pyridin-1-ium-4-yl)-1-(3,4-dimethoxyphenyl)ethyl] 5-[[[2-[(1-methylazetidin-3-yl)methoxy]-2-oxo-1-phenyl-ethyl]amino]methyl]thiophene-2-carboxylate]	1 to 10	1 to 10	
COc1ccc([C@H](Cc2c(Cl)c[n+]([O-])cc2Cl)OC(=O)c2ccc(CNC(C(=O)OCC3CCN(C)CC3)c3ccccc3OC)s2)cc1OC (stereo partly drawn) [Example 118]		< 1	
COc1ccc([C@H](Cc2c(Cl)c[n+]([O-])cc2Cl)OC(=O)c2ccc(CNC(C(=O)OC[C@@H]3CCCN(C)C3)c3ccccc3)s2)cc1OC (stereo partly drawn) [Example 50, [(1S)-2-(3,5-dichloro-1-oxido-pyridin-1-ium-4-yl)-1-(3,4-dimethoxyphenyl)ethyl]5-[[[2-[[(3R)-1-methyl-3-piperidyl]methoxy]-2-oxo-1-phenyl-ethyl]amino]methyl]thiophene-2-carboxylate]	1 to 10		
COc1ccc(C(Cc2c(Cl)c[n+]([O-])cc2Cl)OC(=O)c2ccc(CNC(C(=O)OCC3CCN(C)CC3)c3cccc(O)c3)s2)cc1OCC1CC1 (stereo not drawn) [Example 47, [1-[3-(cyclopropylmethoxy)-4-methoxy-phenyl]-2-(3,5-dichloro-1-oxido-pyridin-1-ium-4-yl)ethyl]5-[[[1-(3-hydroxyphenyl)-2-[(1-methyl-4-piperidyl)methoxy]-2-oxo-ethyl]amino]methyl]thiophene-2-carboxylate]	1 to 10	1 to 10	
COc1ccc([C@H](Cc2c(Cl)c[n+]([O-])cc2Cl)OC(=O)c2ccc(CNC(C(=O)OC[C@@H]3CCCN(C)C3)c3ccccc3)s2)cc1OC (stereo partly drawn) [Example 49, [(1S)-2-(3,5-dichloro-1-oxido-pyridin-1-ium-4-yl)-1-(3,4-dimethoxyphenyl)ethyl]5-[[[2-[[(3R)-1-methyl-3-piperidyl]methoxy]-2-oxo-1-phenyl-ethyl]amino]methyl]thiophene-2-carboxylate]	10 to 100	1 to 10	
COc1ccc([C@H](Cc2c(Cl)c[n+]([O-])cc2Cl)OC(=O)c2ccc(CNC(C(=O)OCC3CCN(C(C)C)CC3)c3ccccc3)s2)cc1OC (single isomer, unassigned) [Example 42]	10 to 100	1 to 10	
COc1ccc([C@H](Cc2c(Cl)c[n+]([O-])cc2Cl)OC(=O)c2ccc(CNC(CO)(C(=O)OC[C@@H]3CCN(C)C3)c3ccccc3)s2)cc1OC (stereo partly drawn) [Example 116, [(1S)-2-(3,5-dichloro-1-oxido-pyridin-1-ium-4-yl)-1-(3,4-dimethoxyphenyl)ethyl] 5-[[[1-(hydroxymethyl)-2-[[(3R)-1-methylpyrrolidin-3-yl]methoxy]-2-oxo-1-phenyl-ethyl]amino]methyl]thiophene-2-carboxylate]		1 to 10	
CN1CCC(COC(=O)C(NCc2ccc(C(=O)O[C@@H](Cc3c(Cl)c[n+]([O-])cc3Cl)c3ccc(OC(F)F)c(OCC4CC4)c3)s2)c2cccc(O)c2)CC1 (mixture of isomers) [Example 46, [(1S)-1-[3-(cyclopropylmethoxy)-4-(difluoromethoxy)phenyl]-2-(3,5-dichloro-1-oxido-pyridin-1-ium-4-yl)ethyl]5-[[[1-(3-hydroxyphenyl)-2-[(1-methyl-4-piperidyl)methoxy]-2-oxo-ethyl]amino]methyl]thiophene-2-carboxylate]	1 to 10	1 to 10	
COc1ccc([C@H](Cc2c(Cl)c[n+]([O-])cc2Cl)OC(=O)c2ccc(CNC(C(=O)OCCN3CCCC3)c3ccccc3)s2)cc1OC (stereo partly drawn) [Example 21, [(1S)-2-(3,5-dichloro-1-oxido-pyridin-1-ium-4-yl)-1-(3,4-dimethoxyphenyl)ethyl] 5-[[[2-oxo-1-phenyl-2-(2-pyrrolidin-1-ylethoxy)ethyl]amino]methyl]thiophene-2-carboxylate]		1 to 10	
COc1ccc(C(Cc2c(Cl)c[n+]([O-])cc2Cl)OC(=O)c2ccc(CNC(C(=O)OCC3CCN(C)CC3)c3ccccc3)s2)cc1OC1CCCC1 (stereo not drawn) [Example 5, [1-[3-(cyclopentoxy)-4-methoxy-phenyl]-2-(3,5-dichloro-1-oxido-pyridin-1-ium-4-yl)ethyl] 5-[[[2-[(1-methyl-4-piperidyl)methoxy]-2-oxo-1-phenyl-ethyl]amino]methyl]thiophene-2-carboxylate]	1 to 10	1 to 10	
COc1ccc([C@H](Cc2c(Cl)c[n+]([O-])cc2Cl)OC(=O)c2ccc(CNC(C(=O)OCC3CCN(C)CC3)C3CCCCC3)s2)cc1OC (stereo partly drawn) [Example 9, [(1S)-2-(3,5-dichloro-1-oxido-pyridin-1-ium-4-yl)-1-(3,4-dimethoxyphenyl)ethyl]5-[[[1-cyclohexyl-2-[(1-methyl-4-piperidyl)methoxy]-2-oxo-ethyl]amino]methyl]thiophene-2-carboxylate]	10 to 100		1 to 10
COc1ccc([C@H](Cc2c(Cl)c[n+]([O-])cc2Cl)OC(=O)c2ccc(CNC(C)(C(=O)OCC3CCN(C)CC3)c3ccccc3)s2)cc1OC (stereo partly drawn) [Example 34, [(1S)-2-(3,5-dichloro-1-oxido-pyridin-1-ium-4-yl)-1-(3,4-dimethoxyphenyl)ethyl] 5-[[[1-methyl-2-[(1-methyl-4-piperidyl)methoxy]-2-oxo-1-phenyl-ethyl]amino]methyl]thiophene-2-carboxylate]	1 to 10		
COc1ccc([C@H](Cc2c(Cl)c[n+]([O-])cc2Cl)OC(=O)c2ccc(CNC(C(=O)OC[C@H]3CCCCN3C)c3ccccc3)s2)cc1OC (stereo partly drawn) [Example 30, [(1S)-2-(3,5-dichloro-1-oxido-pyridin-1-ium-4-yl)-1-(3,4-dimethoxyphenyl)ethyl] 5-[[[2-[[(2R)-1-methyl-2-piperidyl]methoxy]-2-oxo-1-phenyl-ethyl]amino]methyl]thiophene-2-carboxylate]	10 to 100		
COc1ccc([C@H](Cc2c(Cl)c[n+]([O-])cc2Cl)OC(=O)c2ccc(CNC(C(=O)OCC3(F)CCN(C)CC3)c3ccccc3)s2)cc1OC (stereo partly drawn) [Example 3, [(1S)-2-(3,5-dichloro-1-oxido-pyridin-1-ium-4-yl)-1-(3,4-dimethoxyphenyl)ethyl] 5-[[[2-[(4-fluoro-1-methyl-4-piperidyl)methoxy]-2-oxo-1-phenyl-ethyl]amino]methyl]thiophene-2-carboxylate]		1 to 10	
COc1ccc(C(Cc2c(Cl)c[n+]([O-])cc2Cl)OC(=O)c2ccc(CNC(C(=O)OCC3CCN(C)CC3)c3ccccc3)s2)cc1OC1CCCC1 (stereo not drawn) [Example 6, [1-[3-(cyclopentoxy)-4-methoxy-phenyl]-2-(3,5-dichloro-1-oxido-pyridin-1-ium-4-yl)ethyl] 5-[[[2-[(1-methyl-4-piperidyl)methoxy]-2-oxo-1-phenyl-ethyl]amino]methyl]thiophene-2-carboxylate]	1 to 10		
COc1ccc([C@H](Cc2c(Cl)c[n+]([O-])cc2Cl)OC(=O)c2ccc(CNC(C(=O)OC[C@H]3CCCN(C)C3)c3ccccc3)s2)cc1OC (stereo partly drawn) [Example 26, [(1S)-2-(3,5-dichloro-1-oxido-pyridin-1-ium-4-yl)-1-(3,4-dimethoxyphenyl)ethyl] 5-[[[2-[[(3S)-1-methyl-3-piperidyl]methoxy]-2-oxo-1-phenyl-ethyl]amino]methyl]thiophene-2-carboxylate]	1 to 10		
CCN1CCC(COC(=O)C(NCc2ccc(C(=O)O[C@@H](Cc3c(Cl)c[n+]([O-])cc3Cl)c3ccc(OC)c(OC)c3)s2)c2ccccc2)CC1 (stereo partly drawn) [Example 19]		< 1	
COc1ccc([C@H](Cc2c(Cl)c[n+]([O-])cc2Cl)OC(=O)c2ccc(CNC(C(=O)OCC3CCN(C)CC3)c3cccc(O)c3)s2)cc1OC (stereo partly drawn) [Example 41, [(1S)-2-(3,5-dichloro-1-oxido-pyridin-1-ium-4-yl)-1-(3,4-dimethoxyphenyl)ethyl]5-[[[1-(3-hydroxyphenyl)-2-[(1-methyl-4-piperidyl)methoxy]-2-oxo-ethyl]amino]methyl]thiophene-2-carboxylate]	1 to 10		
CCOc1cc(C(Cc2c(Cl)c[n+]([O-])cc2Cl)OC(=O)c2ccc(CNC(C(=O)OCC3CCN(C)CC3)c3cccc(O)c3)s2)ccc1OC (stereo not drawn) [Example 120]		< 1	
